Consider 26 molecules from PMC6047530 (Journal of medicinal chemistry, 2018).

In one data set the test system is MEF PARP-1 KO−/− cells. Briefly: Cell viability assay in MEF PARP-1 KO−/− cells. The settings on record: for EC50: Mus musculus, read-out: PARP-1−/− EC50; for cell death, in words: MEF PARP-1 KO−/−. The class given is cell-based, mouse.
Data set [1] deals with OVCAR8 (BRCA1-methylated) cell line. Briefly: Cytotoxicity screen in OVCAR8 cells at 10 μM. The class given is cell-based.
The test system of a further data set is MEF WT cells. Briefly: Cell viability assay in MEF WT cells. The settings on record: for EC50: Mus musculus, read-out: WT EC50; for cell death, in words: MEF WT. The class given is cell-based, mouse.
The subject of another data set is MEF PARP-2 KO−/− cells. Briefly: Cell viability assay in MEF PARP-2 KO−/− cells. It counts as cell-based. The settings on record: Mus musculus, read-out: PARP-2−/− EC50.
The test system of data set [2] is γH2AX foci in OVCAR8 cells. Briefly: Immunofluorescent cell microscopy of γH2AX foci. The class given is cell-based. To be noted: 0.01-10 μM, 24 hrs.
Data set [3] relates to poly(ADP-ribose) (PAR), biochemical product of PARP-1. Briefly: Western blot analysis of PAR expression in OVCAR8 cells. To be noted: OVCAR8 cells treated 6 h. The class given is cell-based. On the technique in general: Immunoblotting shows a protein as a band on a membrane.
A further data set relates to UWB1.289 cells. Briefly: Cell viability assay in UWB1.289. The class given is cell-based. The settings on record: UWB1.289 isogenic cell lines.
The subject of the next data set is other PARPs. Briefly: PARPs enzyme inhibition panel at 10 μM. The class given is biochemical.
Another data set addresses PARP-1 (Homo sapiens, UniProt P09874). Briefly: PARP-1 radioligand binding. To be noted: 10c vs 10a; 15b vs 15a.

Entries after “also recorded” stand apart in the source; their conditions may differ.

PARP-1, sequence (P09874 whole entry): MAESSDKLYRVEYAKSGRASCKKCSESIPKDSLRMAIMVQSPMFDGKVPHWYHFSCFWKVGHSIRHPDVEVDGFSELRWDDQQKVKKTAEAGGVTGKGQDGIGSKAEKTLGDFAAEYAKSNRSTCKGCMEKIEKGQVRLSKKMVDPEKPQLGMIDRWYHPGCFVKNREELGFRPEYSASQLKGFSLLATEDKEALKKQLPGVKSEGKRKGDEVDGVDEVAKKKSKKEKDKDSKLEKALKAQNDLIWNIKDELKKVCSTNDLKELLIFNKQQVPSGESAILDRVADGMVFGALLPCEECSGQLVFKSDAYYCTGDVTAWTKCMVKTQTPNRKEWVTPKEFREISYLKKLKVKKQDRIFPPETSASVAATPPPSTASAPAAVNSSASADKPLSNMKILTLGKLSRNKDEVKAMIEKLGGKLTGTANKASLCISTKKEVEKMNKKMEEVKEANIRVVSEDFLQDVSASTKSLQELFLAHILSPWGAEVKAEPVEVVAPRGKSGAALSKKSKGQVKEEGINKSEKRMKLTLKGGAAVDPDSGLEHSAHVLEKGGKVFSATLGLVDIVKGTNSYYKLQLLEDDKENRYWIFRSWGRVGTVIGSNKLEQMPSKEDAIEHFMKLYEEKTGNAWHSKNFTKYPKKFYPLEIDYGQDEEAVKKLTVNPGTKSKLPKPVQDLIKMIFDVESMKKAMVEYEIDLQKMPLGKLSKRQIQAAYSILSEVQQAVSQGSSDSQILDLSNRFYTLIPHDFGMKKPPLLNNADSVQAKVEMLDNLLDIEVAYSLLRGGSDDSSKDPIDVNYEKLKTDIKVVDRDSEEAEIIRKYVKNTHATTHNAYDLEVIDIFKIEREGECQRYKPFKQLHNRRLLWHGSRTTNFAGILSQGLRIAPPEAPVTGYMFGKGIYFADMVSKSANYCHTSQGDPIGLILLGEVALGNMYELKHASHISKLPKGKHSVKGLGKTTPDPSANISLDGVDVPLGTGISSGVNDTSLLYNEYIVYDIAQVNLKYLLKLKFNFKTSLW

Turning to `O=C(c1cc(Cc2n[nH]c(=O)c3ccccc23)ccc1F)N1CCC2(CCCCC2)CC1` [Compound 17a, 4-(4-Fluoro-3-(3-azaspiro[5.5]undecane-3-carbonyl)benzyl)phthalazin-1(2H)-one], the EC50 in the data set on MEF PARP-1 KO−/− cells is over 100 µM.
The same measure, in the same setting: the value for `O=C(c1cc(Cc2n[nH]c(=O)c3ccccc23)ccc1F)N1CCC2(CCN(C(=O)C3CC3)CC2)C1` [Compound 16d, 4-(3-(8-(Cyclopropanecarbonyl)-2,8-diazaspiro[4.5]decane-2-carbonyl)-4-fluorobenzyl)phthalazin-1(2H)-one] was over 100 µM.
The same measure, in the same setting: the value for `O=C(c1cc(Cc2n[nH]c(=O)c3ccccc23)ccc1F)N1CCC12CCC2` [Compound 11a, 4-(4-Fluoro-3-(1-azaspiro[3.3]heptane-1-carbonyl)benzyl)phthalazin-1(2H)-one] was over 100 µM.
On to `O=C(c1cc(Cc2n[nH]c(=O)c3ccccc23)ccc1F)N1CCC2(CC1)CCN(C(=O)C1CC1)CC2` [Compound 17d, 4-(3-(9-(Cyclopropanecarbonyl)-3,9-diazaspiro[5.5]undecane-3-carbonyl)-4-fluorobenzyl)phthalazin-1(2H)-one], for which the “cytotoxicity / anti-proliferative activity (in words)” value in [1] is on record as “poor cytotoxic properties”.
As to `O=C(c1cc(Cc2n[nH]c(=O)c3ccccc23)ccc1F)N1CCC12CNC2` [Compound 11c, 4-(4-Fluoro-3-(1,6-diazaspiro[3.3]heptane-1-carbonyl)benzyl)phthalazin-1(2H)-one], the EC50 in the data set on MEF WT cells, in the data set on MEF PARP-1 KO−/− cells and with MEF PARP-2 KO−/− cells was over 100 µM throughout.
For `O=C(c1cc(Cc2n[nH]c(=O)c3ccccc23)ccc1F)N1CCC2(CCNCC2)C1` [Compound 16c, 4-(4-Fluoro-3-(2,8-diazaspiro[4.5]decane-2-carbonyl)benzyl)phthalazin-1(2H)-one], the EC50 in the data set with MEF WT cells, in the data set on MEF PARP-1 KO−/− cells and in the data set on MEF PARP-2 KO−/− cells was over 100 µM throughout.
Take `O=C(c1cc(Cc2n[nH]c(=O)c3ccccc23)ccc1F)N1CCC12CCCCC2` [Compound 13a, 4-(4-Fluoro-3-(1-azaspiro[3.5]nonane-1-carbonyl)benzyl)phthalazin-1(2H)-one]: the EC50 in the data set on MEF PARP-1 KO−/− cells is over 100 µM.
Same read-out and setting: the value for `O=C(c1cc(Cc2n[nH]c(=O)c3ccccc23)ccc1F)N1CC2(COC2)C1` [Compound 10b, 4-(4-Fluoro-3-(2-oxa-6-azaspiro[3.3]heptane-6-carbonyl)benzyl)phthalazin-1(2H)-one] was over 100 µM.
As for `O=C(c1cc(Cc2n[nH]c(=O)c3ccccc23)ccc1F)N1CC2(CCC2)C1` [Compound 10a, 4-(4-Fluoro-3-(2-azaspiro[3.3]heptane-2-carbonyl)benzyl)phthalazin-1(2H)-one], the “cytotoxicity / anti-proliferative activity (in words)” value in [1] is “poor cytotoxic properties”. In the data set with MEF PARP-1 KO−/− cells, the EC50 is over 100 µM.
Take `O=C(c1cc(Cc2n[nH]c(=O)c3ccccc23)ccc1F)N1CC2(CCCCC2)C1` [Compound 12a, 4-(4-Fluoro-3-(2-azaspiro[3.5]nonane-2-carbonyl)benzyl)phthalazin-1(2H)-one]: in data set [1], the “cytotoxicity / anti-proliferative activity (in words)” value is on record as “poor cytotoxic properties”.
Turning to `O=C(c1cc(Cc2n[nH]c(=O)c3ccccc23)ccc1F)N1CCC12CCNCC2` [Compound 13c, 4-(4-Fluoro-3-(1,7-diazaspiro[3.5]nonane-1-carbonyl)benzyl)phthalazin-1(2H)-one], the EC50 with MEF WT cells and in the data set with MEF PARP-1 KO−/− cells was over 100 µM throughout.
As to `O=C(c1cc(Cc2n[nH]c(=O)c3ccccc23)ccc1F)N1CCC2(CCN(C(=O)C3CC3)C2)C1` (centres unmarked) [Compound 15d, 4-(3-(7-(Cyclopropanecarbonyl)-2,7-dizaspiro[4.4]nonane-2-carbonyl)-4-fluorobenzyl)phthalazin-1(2H)-one], the EC50 in the data set on MEF WT cells and in the data set with MEF PARP-1 KO−/− cells was over 100 µM in each case.
Take `CC(C)(C)OC(=O)N1CCC2(CC1)CCN2C(=O)c1cc(Cc2n[nH]c(=O)c3ccccc23)ccc1F` [Compound 13b, Tert-butyl 1-(2-fluoro-5-((4-oxo-3,4-dihydrophthalazin-1-yl)methyl)benzoyl)-1,7-diazaspiro[3.5]nonane-7-carboxylate]: in the data set with MEF PARP-1 KO−/− cells, the EC50 is over 100 µM.
As for `O=C(c1cc(Cc2n[nH]c(=O)c3ccccc23)ccc1F)N1CC2(C1)CN(C(=O)C1CC1)C2` [Compound 10e, 4-(3-(6-(Cyclopropanecarbonyl)-2,6-diazaspiro[3.3]heptane-2-carbonyl)-4-fluorobenzyl)phthalazin-1(2H)-one], the “DNA damage (γ-H2AX foci), in words” value in [2] is recorded as “did not induce DNA damage at similar drug concentrations as olaparib; also recorded: unable to induce DNA damage at concentrations as high as 10 μM”. Further, in the data set on MEF WT cells, the “cell death, in words” value is reported as “no measurable cell death” and the EC50 is over 100 µM. For the same molecule, in data set [3], the “inhibition of PARP activity (PAR synthesis), in words” value is recorded as “inhibit PARP activity in a manner similar to olaparib”. Also, in the data set on MEF PARP-1 KO−/− cells, the “cell death, in words” value is given as “no measurable cell death” and the EC50 is over 100 µM. Also, the “cytotoxic concentration (EC50) relative to olaparib” value in the data set with UWB1.289 cells was “approximately 7 fold”. Besides, the “off-target enzymatic inhibition of other PARPs, in words” value in the data set with other PARPs is reported as “minimal off-target activity; also recorded: less enzymatic inhibition with most other PARPs”.
As for `O=C(c1cc(Cc2n[nH]c(=O)c3ccccc23)ccc1F)N1CCC2(CCNCC2)CC1` [Compound 17c, 4-(4-Fluoro-3-(3,9-diazaspiro[5.5]undecane-3-carbonyl)benzyl)phthalazin-1(2H)-one], the EC50 in the data set on MEF WT cells and in the data set on MEF PARP-1 KO−/− cells was over 100 µM throughout.
On to `O=C(c1cc(Cc2n[nH]c(=O)c3ccccc23)ccc1F)N1CCN(C(=O)C2CC2)CC1` [olaparib, reference compound], for which the “DNA damage (γ-H2AX foci), in words” value in data set [2] was “induced DNA damage in a dose dependent manner”.
As for `O=C(c1cc(Cc2n[nH]c(=O)c3ccccc23)ccc1F)N1CC2(CCN(C(=O)C3CC3)CC2)C1` [Compound 12d, 4-(3-(7-(Cyclopropanecarbonyl)-2,7-diazaspiro[3.5]nonane-2-carbonyl)-4-fluorobenzyl)phthalazin-1(2H)-one], in the data set on MEF PARP-1 KO−/− cells, the EC50 was over 100 µM.
Regarding `O=C(C1CC1)N1CCC2(CC1)CCN2C(=O)c1cc(Cc2n[nH]c(=O)c3ccccc23)ccc1F` [Compound 13d, 4-(3-(7-(Cyclopropanecarbonyl)-1,7-diazaspiro[3.5]nonane-1-carbonyl)-4-fluorobenzyl)phthalazin-1(2H)-one], the EC50 in the data set with MEF PARP-1 KO−/− cells was over 100 µM.
The same measure, in the same setting: then `O=C(c1cc(Cc2n[nH]c(=O)c3ccccc23)ccc1F)N1CCC2(CCCC2)C1` [Compound 15a, 4-(4-Fluoro-3-(2-azaspiro[4.4]nonane-2-carbonyl)benzyl)phthalazin-1(2H)-one], with over 100 µM; and `CC(C)(C)OC(=O)N1CC2(CCN2C(=O)c2cc(Cc3n[nH]c(=O)c4ccccc34)ccc2F)C1` [Compound 11b, Tert-butyl 1-(2-fluoro-5-((4-oxo-3,4-dihydrophthalazin-1-yl)methyl)benzoyl)-1,6-diazaspiro[3.3]heptane-6-carboxylate], with over 100 µM.
In the case of `O=C(c1cc(Cc2n[nH]c(=O)c3ccccc23)ccc1F)N1CC2(CCNCC2)C1` [Compound 12c, 4-(4-Fluoro-3-(2,7-diazaspiro[3.5]nonane-2-carbonyl)benzyl)phthalazin-1(2H)-one], the EC50 in the data set on MEF WT cells and in the data set on MEF PARP-1 KO−/− cells was over 100 µM each time.
As to `CC(C)(C)OC(=O)N1CCC2(CCN(C(=O)c3cc(Cc4n[nH]c(=O)c5ccccc45)ccc3F)C2)C1` (centres unmarked) [Compound 15b, Tert-butyl 7-(2-fluoro-5-((4-oxo-3,4-dihydrophthalazin-1-yl)methyl)benzoyl)-2,7-diazaspiro[4.4]nonane-2-carboxylate], the “DNA damage (γ-H2AX foci), in words” value in data set [2] is recorded as “induced DNA damage at micromolar concentrations; also recorded: induced DNA damage in a dose dependent manner”. Moreover, the “inhibition of PARP activity (PAR synthesis), in words” value in [3] is listed as “inhibit PARP activity in a manner similar to olaparib”. Besides, the “fold lower PARP-1 affinity compared to methylene congener” value on PARP-1 is ~ 85 fold.
On to `O=C(c1cc(Cc2n[nH]c(=O)c3ccccc23)ccc1F)N1CCC2(CCNC2)C1` (centres unmarked) [Compound 15c, 4-(4-Fluoro-3-(2,7-diazaspiro[4.4]nonane-2-carbonyl)benzyl)phthalazin-1(2H)-one], for which the EC50 in the data set on MEF WT cells and in the data set with MEF PARP-1 KO−/− cells was over 100 µM in each case.
As to `CC(C)(C)OC(=O)N1CC2(C1)CN(C(=O)c1cc(Cc3n[nH]c(=O)c4ccccc34)ccc1F)C2` [Compound 10c, Tert-butyl 6-(2-fluoro-5-((4-oxo-3,4-dihydrophthalazin-1-yl)methyl)benzoyl)-2,6-diazaspiro[3.3]heptane-2-carboxylate], the EC50 with MEF PARP-1 KO−/− cells is over 100 µM. In addition, on PARP-1, the “fold lower PARP-1 affinity compared to methylene congener” value is on record as ~ 16 fold.
As to `O=C(c1cc(Cc2n[nH]c(=O)c3ccccc23)ccc1F)N1CC2(CNC2)C1` [Compound 10d, 4-(4-Fluoro-3-(2,6-diazaspiro[3.3]heptane-2-carbonyl)benzyl)phthalazin-1(2H)-one], the “cell death, in words” value in the data set with MEF WT cells and with MEF PARP-1 KO−/− cells was “no cell death was observed” each time. The EC50 in the data set on MEF WT cells, in the data set on MEF PARP-1 KO−/− cells and with MEF PARP-2 KO−/− cells was over 100 µM throughout.
Consider `O=C(C1CC1)N1CC2(CCN2C(=O)c2cc(Cc3n[nH]c(=O)c4ccccc34)ccc2F)C1` [Compound 11d, 4-(3-(6-(Cyclopropanecarbonyl)-1,6-diazaspiro[3.3]heptane-1-carbonyl)-4-fluorobenzyl)phthalazin-1(2H)-one], for which, in the data set on MEF PARP-1 KO−/− cells, the EC50 was over 100 µM.
